This assay addresses KRas (Homo sapiens, UniProt P01116, G12C). In words: KRas degradation in NCI-H2030 cells by Western blot, normalized to GAPDH (data of Table 14). Format: cell-based. Also noted: host or cells: NCI-H2030. The conditions noted are these: for Percent Degradation at Indicated Concentration (μM): H2030; for Dmax: NCI-H2030. The method, then:
Cell Lines, Antibodies, and Reagents. NCI-H2030 (CRL-5914) and SW1573 (CRL-2170) cells were purchased from ATCC. Both cell lines are homozygous for the G12C mutation in KRas. NCI-H2030 cells were cultured in RPMI-1640 medium containing 1% penicillin-streptomycin and 10% fetal bovine serum (FBS). SW1573 cells were cultured in DMEM containing 1% penicillin-streptomycin and 10% FBS. The KRas detection antibody (Cat. No. LS-C175665) was purchased from LifeSpan Biosciences and was used at a dilution of 1:2000. GAPDH was detected using an antibody purchased from Cell Signaling Technology (Cat. No. 5174) and was diluted 1:3000. Secondary anti-mouse and anti-rabbit detection antibodies were purchased from Cell Signaling Technology (Cat. Nos. 7076 and 7074, respectively).
Compound Treatment and Western Blotting of the Data of Table 14. Either NCI-H2030 or SW1573 cells were plated in 12-well plates and allowed to adhere overnight at 37° C. in an incubator containing 5% CO2. The following day, the medium was replaced with the appropriate medium lacking FBS to induce starvation. Cells were returned to the incubator for an additional 24 hours following media exchange. […] Cells were treated with VHL-based compounds for 24 hours and all other compounds for 72 hours. Following treatment, cells were lysed in RIPA buffer (Thermo Fisher Cat. No. 89900) containing phosphatase (Thermo Fisher Cat. No. 1861277) and protease (Thermo Fisher Cat. No. 78429) inhibitor cocktails. Lysates were cleared at 13,000 rpm for 15 minutes and supernatants were assayed for total protein concentration using the Pierce BCA assay system (Thermo Fisher Cat. No. 23225). For each sample, 10 μg total protein was resolved on a 12% Bis-Tris gel and then transferred to a nitrocellulose membrane. After blocking in 3% BSA in TBST (Tris-buffered Saline with 0.1% Tween-20) for 1 hour at room temperature, membranes were probed with the primary antibody (LS Bio Cat. No. LS-C175665) overnight at 4° C. After incubation with the secondary antibody, the following day membranes were visualized using the SuperSignal™ West Femto substrate (Thermo Fisher Cat. No. 34095). The KRas signal in each lane was normalized to GAPDH and percent degradation was either estimated as less than 25% by visual inspection (C in Table 13) or quantitated relative to the DMSO control lane using BIO-RAD Image Lab 5.2.1, and all data was plotted using GraphPad PRISM 6.07.
DC50 is the half-maximal degradation concentration—i.e., the concentration at which 50% degradation is observed. DMax is the maximum degradation efficacy is achieved—i.e., the maximal degradation observed) degradation data.
On the technique in general: Immunoblotting shows a protein as a band on a membrane.

A word on the Dmax: it is the greatest extent of degradation seen. A low value points to a partial loss of target. `C=CC(=O)N1CCN(c2nc(NCCC(=O)N(C)CCOc3cc(-c4scnc4C)ccc3CNC(=O)[C@@H]3C[C@@H](O)CN3C(=O)[C@H](c3cc(C)no3)C(C)C)nc3c(F)c(-c4c(O)cccc4F)c(Cl)cc23)CC1` (atropisomer, axis not shown) [compound 127, (25,4R)-N-(2-(2-(3-(((S)-4-(4-acryloylpiperazin-1-yl)-6-chloro-8-fluoro-7-(2-fluoro-6-hydroxyphenyl)quinazolin-2-yl)amino)-N-methylpropanamido)ethoxy)-4-(4-methylthiazol-5-yl)benzyl)-4-hydroxy-1-((S)-3-methyl-2-(3-methylisoxazol-5-yl)butanoyl)pyrrolidine-2-carboxamide] gave a Dmax of at most 35%. Also, the “Percent Degradation at Indicated Concentration (μM)” value (shortened to “Percent Degradation”) (0.3 μM) is reported as “C (Percent Degradation: C ≤ 35)”. Further, the “Percent Degradation” value (1 μM) is “C (Percent Degradation: C ≤ 35)”. For the same molecule, where the note is “3 μM”, the “Percent Degradation” value was “C (Percent Degradation: C ≤ 35)”.
Molecule `C=CC(=O)N1CCN(c2nc(NCCC(=O)N(C)CCOCCOc3cc(-c4scnc4C)ccc3CNC(=O)[C@@H]3C[C@@H](O)CN3C(=O)[C@@H](c3cc(C)no3)C(C)C)nc3c(F)c(-c4c(O)cccc4F)c(Cl)cc23)CC1` (atropisomer, axis not shown) [compound 128, (25,4R)-N-(2-(2-(2-(3-(((S)-4-(4-acryloylpiperazin-1-yl)-6-chloro-8-fluoro-7-(2-fluoro-6-hydroxyphenyl)quinazolin-2-yl)amino)-N-methylpropanamido)ethoxy)ethoxy)-4-(4-methylthiazol-5-yl)benzyl)-4-hydroxy-1-((R)-3-methyl-2-(3-methylisoxazol-5-yl)butanoyl)pyrrolidine-2-carboxamide] registered a Dmax of at most 35%. Further, the “Percent Degradation” value (0.3 μM) was “C (Percent Degradation: C ≤ 35)”. The “Percent Degradation” value (1 μM) was “C (Percent Degradation: C ≤ 35)”. The “Percent Degradation” value (3 μM) is reported as “C (Percent Degradation: C ≤ 35)”.
Regarding `C=CC(=O)N1CCN(c2nc(NCCC(=O)N(C)CCOCCOCCOc3cc(-c4scnc4C)ccc3CNC(=O)[C@@H]3C[C@@H](O)CN3C(=O)[C@H](c3cc(C)no3)C(C)C)nc3c(F)c(-c4c(O)cccc4F)c(Cl)cc23)CC1` (atropisomer, axis not shown) [compound 130, (25,4R)-N-(2-(2-(2-(2-(3-(((S)-4-(4-acryloylpiperazin-1-yl)-6-chloro-8-fluoro-7-(2-fluoro-6-hydroxyphenyl)quinazolin-2-yl)amino)-N-methylpropanamido)ethoxy)ethoxy)ethoxy)-4-(4-methylthiazol-5-yl)benzyl)-4-hydroxy-1-((S)-3-methyl-2-(3-methylisoxazol-5-yl)butanoyl)pyrrolidine-2-carboxamide], the Dmax was at most 35%. In addition, the “Percent Degradation” value (0.3 μM) was “C (Percent Degradation: C ≤ 35)”. The “Percent Degradation” value (1 μM) is “C (Percent Degradation: C ≤ 35)”. For the same molecule, under “3 μM”, the “Percent Degradation” value is recorded as “C (Percent Degradation: C ≤ 35)”.
`C=CC(=O)N1CCN(c2nc(NCCC(=O)N(C)CCOCCOCCOCCOc3cc(-c4scnc4C)ccc3CNC(=O)[C@@H]3C[C@@H](O)CN3C(=O)[C@H](c3cc(C)no3)C(C)C)nc3c(F)c(-c4c(O)cccc4F)c(Cl)cc23)CC1` (atropisomer, axis not shown) [compound 131, (2S,4R)-N-(2-((15-(((S)-4-(4-acryloylpiperazin-1-yl)-6-chloro-8-fluoro-7-(2-fluoro-6-hydroxyphenyl)quinazolin-2-yl)amino)-12-methyl-13-oxo-3,6,9-trioxa-12-azapentadecyl)oxy)-4-(4-methylthiazol-5-yl)benzyl)-4-hydroxy-1-((S)-3-methyl-2-(3-methylisoxazol-5-yl)butanoyl)pyrrolidine-2-carboxamide]: the Dmax is at most 35%. Also, where the note is “0.3 μM”, the “Percent Degradation” value was “C (Percent Degradation: C ≤ 35)”. Besides, the “Percent Degradation” value (1 μM) is “C (Percent Degradation: C ≤ 35)”. For the same molecule, for the setting “3 μM”, the “Percent Degradation” value is on record as “C (Percent Degradation: C ≤ 35)”.
`C=CC(=O)N1CCN(c2nc(NCCC(=O)N(C)CCOCCOCCOCCOCCOc3cc(-c4scnc4C)ccc3CNC(=O)[C@@H]3C[C@@H](O)CN3C(=O)[C@H](c3cc(C)no3)C(C)C)nc3c(F)c(-c4c(O)cccc4F)c(Cl)cc23)CC1` (atropisomer, axis not shown) [compound 132, (25,4R)-N-(2-((18-(((S)-4-(4-acryloylpiperazin-1-yl)-6-chloro-8-fluoro-7-(2-fluoro-6-hydroxyphenyl)quinazolin-2-yl)amino)-15-methyl-16-oxo-3,6,9,12-tetraoxa-15-azaoctadecyl)oxy)-4-(4-methylthiazol-5-yl)benzyl)-4-hydroxy-1-((S)-3-methyl-2-(3-methylisoxazol-5-yl)butanoyl)pyrrolidine-2-carboxamide] came in with a Dmax of at most 35%. Moreover, the “Percent Degradation” value (0.3 μM) is reported as “C (Percent Degradation: C ≤ 35)”. The “Percent Degradation” value (1 μM) is “C (Percent Degradation: C ≤ 35)”. Besides, where the note is “3 μM”, the “Percent Degradation” value is “C (Percent Degradation: C ≤ 35)”.
As for `C=CC(=O)N1CCN(c2nc(NCCC(=O)N(C)CCOCC(=O)N[C@H](C(=O)N3C[C@H](O)C[C@H]3C(=O)N[C@@H](C)c3ccc(-c4scnc4C)cc3)C(C)(C)C)nc3c(F)c(-c4c(O)cccc4F)c(Cl)cc23)CC1` (atropisomer, axis not shown) [compound 205, (2S,4R)-1-((S)-2-(2-(2-(3-(((S)-4-(4-acryloylpiperazin-1-yl)-6-chloro-8-fluoro-7-(2-fluoro-6-hydroxyphenyl)quinazolin-2-yl)amino)-N-methylpropanamido)ethoxy)acetamido)-3,3-dimethylbutanoyl)-4-hydroxy-N-((S)-1-(4-(4-methylthiazol-5-yl)phenyl)ethyl)pyrrolidine-2-carboxamide], the “Percent Degradation” value (3 μM) was “C (Percent Degradation: C ≤ 35)”.
For the molecule `C=CC(=O)N1CCN(c2nc(NCCC(=O)N(C)CCOCC(=O)N[C@H](C(=O)N3C[C@H](O)C[C@H]3C(=O)N[C@@H](C)c3ccc(-c4scnc4C)cc3)C(C)(C)C)nc3c(F)c(-c4c(O)cccc4F)c(Cl)cc23)CC1` (atropisomer, axis not shown) [compound 206, (2S,4R)-1-((S)-2-(2-(2-(3-(((R)-4-(4-acryloylpiperazin-1-yl)-6-chloro-8-fluoro-7-(2-fluoro-6-hydroxyphenyl)quinazolin-2-yl)amino)-N-methylpropanamido)ethoxy)acetamido)-3,3-dimethylbutanoyl)-4-hydroxy-N-((S)-1-(4-(4-methylthiazol-5-yl)phenyl)ethyl)pyrrolidine-2-carboxamide], the Dmax is at most 35%. Besides, for the setting “0.3 μM”, the “Percent Degradation” value is “C (Percent Degradation: C ≤ 35)”. Also, the “Percent Degradation” value (1 μM) is reported as “C (Percent Degradation: C ≤ 35)”. Moreover, for the setting “3 μM”, the “Percent Degradation” value was “C (Percent Degradation: C ≤ 35)”.
On to `C=CC(=O)N1CCN(c2nc(NCCC(=O)N(C)CCOCCOCC(=O)N[C@H](C(=O)N3C[C@H](O)C[C@H]3C(=O)N[C@@H](C)c3ccc(-c4scnc4C)cc3)C(C)(C)C)nc3c(F)c(-c4c(O)cccc4F)c(Cl)cc23)CC1` (atropisomer, axis not shown) [compound 207, (2S,4R)-1-((S)-15-(((S)-4-(4-acryloylpiperazin-1-yl)-6-chloro-8-fluoro-7-(2-fluoro-6-hydroxyphenyl)quinazolin-2-yl)amino)-2-(tert-butyl)-12-methyl-4,13-dioxo-6,9-dioxa-3,12-diazapentadecanoyl)-4-hydroxy-N-((S)-1-(4-(4-methylthiazol-5-yl)phenyl)ethyl)pyrrolidine-2-carboxamide], for which the “Percent Degradation” value (3 μM) was “C (Percent Degradation: C ≤ 35)”.

Values taken from patent US12552783B2, “Modulators of proteolysis and associated methods of use” (Arvinas Operations, Inc., priority 2018, dated 2026).
